Assays:
[1] = biological target: T1, F317L Bcr-abl (Ba/F3 cells) (Homo sapiens, UniProt P00519, F317L); assay: Proliferation of Ba/F3 cells expressing F317L Bcr-abl; format: cell-based
T1 construct: expressed in transfected cells; host or cells: Ba/F3 (murine pro-B cells); the other entry of the earlier key: BCR (P11274, Breakpoint cluster region protein)
Protocol: (§1) 32D-p210 cells are plated into 96 well TC plates at a density of 15,000 cells per well. 50 μL of two fold serial dilutions of the test compound (Cmax is 40 μM) are added to each well (STI571 is included as a positive control). After incubating the cells for 48 hours at 37° C., 5% CO2, 15 μL of MTT (Promega) is added to each well and the cells are incubated for an additional 5 hours. The optical density at 570 nm is quantified spectrophotometrically and IC50 values, the concentration of compound required for 50% inhibition, determined from a dose response curve.
(§2) Compounds of the invention are tested for their antiproliferative effect on Ba/F3 cells expressing either wild type or the mutant forms of BCR-Abl (G250E, E255V, T315I, F317L, M351T) that confers resistance or diminished sensitivity to STI571. The antiproliferative effect of these compounds on the mutant-BCR-Abl expressing cells and on the non transformed cells were tested at 10, 3.3, 1.1 and 0.37 μM as described above (in media lacking IL3). The IC50 values of the compounds lacking toxicity on the untransformed cells were determined from the dose response curves obtained as describe above.

FLT-3 = FLT-3 (Homo sapiens, UniProt P36888, cells depend on it, form not given); assay: FLT3 (Cellular Assay), Ba/F3-FLT3-ITD proliferation; format: cell-based; details: read-out: IC50 for FLT-3
[2] = biological target: T2, T315I Bcr-abl (Ba/F3 cells) (Homo sapiens, UniProt P00519, T315I); assay: Proliferation of Ba/F3 cells expressing T315I Bcr-abl; format: cell-based
T2 construct: expressed in transfected cells; host or cells: Ba/F3 (murine pro-B cells); the other entry of the earlier key: BCR (P11274, Breakpoint cluster region protein)
Protocol: as §1, §2

[3] = biological target: T3, M351T Bcr-abl (Ba/F3 cells) (Homo sapiens, UniProt P00519, M351T); assay: Proliferation of Ba/F3 cells expressing M351T Bcr-abl; format: cell-based
T3 construct: expressed in transfected cells; host or cells: Ba/F3 (murine pro-B cells); the other entry of the earlier key: BCR (P11274, Breakpoint cluster region protein)
Protocol: as §1, §2

B-RAF = B-RAF (Homo sapiens, UniProt P15056); assay: b-Raf Enzymatic Assay; format: biochemical
Sequence of B-RAF (P15056 whole entry): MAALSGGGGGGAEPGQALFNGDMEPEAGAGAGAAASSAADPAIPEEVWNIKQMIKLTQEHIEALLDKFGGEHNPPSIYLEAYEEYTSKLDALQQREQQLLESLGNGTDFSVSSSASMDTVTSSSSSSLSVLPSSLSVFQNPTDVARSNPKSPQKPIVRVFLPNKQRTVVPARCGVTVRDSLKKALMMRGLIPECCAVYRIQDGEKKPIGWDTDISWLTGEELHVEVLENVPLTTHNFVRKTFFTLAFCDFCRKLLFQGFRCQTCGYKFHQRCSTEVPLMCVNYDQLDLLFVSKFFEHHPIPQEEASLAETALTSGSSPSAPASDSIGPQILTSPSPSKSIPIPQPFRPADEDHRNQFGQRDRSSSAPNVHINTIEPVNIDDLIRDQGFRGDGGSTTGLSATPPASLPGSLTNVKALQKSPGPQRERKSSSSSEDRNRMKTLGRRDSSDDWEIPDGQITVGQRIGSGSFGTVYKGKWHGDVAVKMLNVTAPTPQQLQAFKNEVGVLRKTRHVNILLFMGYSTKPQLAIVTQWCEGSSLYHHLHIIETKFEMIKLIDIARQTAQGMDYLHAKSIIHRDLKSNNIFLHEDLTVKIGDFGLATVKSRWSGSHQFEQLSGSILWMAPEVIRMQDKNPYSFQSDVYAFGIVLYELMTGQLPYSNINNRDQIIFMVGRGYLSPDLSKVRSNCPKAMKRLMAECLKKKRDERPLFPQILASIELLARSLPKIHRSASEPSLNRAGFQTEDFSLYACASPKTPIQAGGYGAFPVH
Protocol: Compounds of the invention are tested for their ability to inhibit the activity of b-Raf. The assay is carried out in 384-well MaxiSorp plates (NUNC) with black walls and clear bottom. The substrate, IκBα is diluted in DPBS (1:750) and 15 μl is added to each well. The plates are incubated at 4° C. overnight and washed 3 times with TBST (25 mM Tris, pH 8.0, 150 mM NaCl and 0.05% Tween-20) using the EMBLA plate washer. Plates are blocked by Superblock (15 μl/well) for 3 hours at room temperature, washed 3 times with TBST and pat-dried. Assay buffer containing 20 μM ATP (10 μl) is added to each well followed by 100 nl or 500 nl of compound. B-Raf is diluted in the assay buffer (1 μl into 25 μl) and 10 μl of diluted b-Raf is added to each well (0.4 μg/well). The plates are incubated at room temperature for 2.5 hours. The kinase reaction is stopped by washing the plates 6 times with TBST. Phosph-IκBα (Ser32/36) antibody is diluted in Superblock (1:10,000) and 15 μl is added to each well. The plates are incubated at 4° C. overnight and washed 6 times with TBST. AP-conjugated goat-anti-mouse IgG is diluted in Superblock (1:1,500) and 15 μl is added to each well. Plates are incubated at room temperature for 1 hour and washed 6 times with TBST. […] Plates are read on Acquest or Analyst GT using a Fluorescence Intensity Program (Excitation 455 nm, Emission 580 nm).

[4] = biological target: T4, E255V Bcr-abl (Ba/F3 cells) (Homo sapiens, UniProt P00519, E255V); assay: Proliferation of Ba/F3 cells expressing E255V Bcr-abl; format: cell-based
T4 construct: expressed in transfected cells; host or cells: Ba/F3 (murine pro-B cells); the other entry of the earlier key: BCR (P11274, Breakpoint cluster region protein)
Protocol: as §1, §2

FGFR3 = biological target: T5, FGFR3 (Homo sapiens, UniProt P22607); assay: FGFR3 (Enzymatic Assay); format: biochemical
T5 construct: if the value comes from the Ba/F3-TEL-FGFR3 test; If it comes from the purified enzyme, only the vendor's tag
T5 sequence (P22607 whole entry): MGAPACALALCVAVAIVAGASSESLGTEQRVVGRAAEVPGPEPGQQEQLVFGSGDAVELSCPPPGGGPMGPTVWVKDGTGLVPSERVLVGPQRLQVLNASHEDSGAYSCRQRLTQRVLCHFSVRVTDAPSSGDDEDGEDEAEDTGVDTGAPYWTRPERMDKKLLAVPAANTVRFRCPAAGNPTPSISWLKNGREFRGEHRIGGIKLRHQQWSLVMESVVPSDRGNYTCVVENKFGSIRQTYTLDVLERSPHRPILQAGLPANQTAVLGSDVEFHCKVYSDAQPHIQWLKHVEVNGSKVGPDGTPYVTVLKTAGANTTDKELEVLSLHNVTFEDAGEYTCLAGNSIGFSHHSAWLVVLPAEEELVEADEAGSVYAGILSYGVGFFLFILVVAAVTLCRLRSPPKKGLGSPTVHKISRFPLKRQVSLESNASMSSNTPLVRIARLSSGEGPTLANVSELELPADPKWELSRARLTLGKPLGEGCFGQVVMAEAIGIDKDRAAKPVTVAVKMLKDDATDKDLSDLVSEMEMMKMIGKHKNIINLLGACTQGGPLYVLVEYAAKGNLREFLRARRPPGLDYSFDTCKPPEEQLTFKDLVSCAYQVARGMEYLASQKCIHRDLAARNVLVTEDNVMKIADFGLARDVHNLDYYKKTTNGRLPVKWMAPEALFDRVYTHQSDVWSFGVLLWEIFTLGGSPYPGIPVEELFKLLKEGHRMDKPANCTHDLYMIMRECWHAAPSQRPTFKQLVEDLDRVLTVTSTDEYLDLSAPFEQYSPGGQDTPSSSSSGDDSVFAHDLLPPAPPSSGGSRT
Protocol: Kinase activity assay with purified FGFR3 (Upstate) is carried out in a final volume of 10 μL containing 0.25 μg/mL of enzyme in kinase buffer (30 mM Tris-HCl pH7.5, 15 mM MgCl2, 4.5 mM MnCl2, 15 μM Na3VO4 and 50 μg/mL BSA), and substrates (5 μg/mL biotin-poly-EY(Glu, Tyr) (CIS-US, Inc.) and 3 μM ATP). Two solutions are made: the first solution of 5 μl contains the FGFR3 enzyme in kinase buffer was first dispensed into 384-format ProxiPlate® (Perkin-Elmer) followed by adding […] of compounds dissolved in DMSO, then […] of second solution contains the substrate (poly-EY) and ATP in kinase buffer was added to each wells. The reactions are incubated at room temperature for one hour, stopped by adding 10 μL of HTRF detection mixture, which contains 30 mM Tris-HCl pH7.5, 0.5 M KF, 50 mM ETDA, 0.2 mg/mL BSA, 15 μg/mL streptavidin-XL665 (CIS-US, Inc.) and 150 ng/mL cryptate conjugated anti-phosphotyrosine antibody (CIS-US, Inc.). After one hour of room temperature incubation to allow for streptavidin-biotin interaction, time resolved florescent signals are read on Analyst GT (Molecular Devices Corp.). IC50 values are calculated by […] analysis of the percentage inhibition of each compound at 12 concentrations (1:3 dilution from 50 μM to 0.28 nM).

**Q.** Which results are given for `CCN1CCN(Cc2ccc(NC(=O)c3ccc(C)c(NC(=O)N(C)c4ncnc5[nH]ccc45)c3)cc2C(F)(F)F)CC1` [Example 4, N-[4-(4-Ethyl-piperazin-1-ylmethyl)-3-trifluoromethyl-phenyl]-4-methyl-3-[3-methyl-3-(7H-pyrrolo[2,3-d]pyrimidin-4-yl)-ureido]-benzamide]?
**A.** IC50 [1]: < 5 nM; GI50 (FLT-3): 15 nM; IC50 [2]: < 5 nM; IC50 [3]: < 5 nM; IC50 (B-RAF): 100 nM; IC50 [4]: < 5 nM; IC50 (FGFR3): 36 nM
